Test results reported in patent US20210198284A1, “GOLD COMPOSITIONS AND METHODS OF USE THEREOF” (THE UNIVERSITY OF MASSACHUSETTS, priority 2018, published 2021).

Columns and labels:
[1] = Log P determination (n-octanol/water, FAAS); details: n-octanol/water, gold by FAAS; for logP: Log P
Description: Log P Determination: Calibration curves. Milli-Q Water (150 mL) was added to n-octanol (150 mL), and the mixture was stirred for 3 days to allow both phases to reach saturation. The gold standard solution (1000 ppm Au in hydrochloric acid, Fisher Scientific) was diluted to 1, 2, 3, 4 and 5 ppm with n-octanol-saturated water, and the absorbance of the resulting solutions was measured by flame atomic absorption spectroscopy (FAAS, Agilent Technology 200 Series AA, equipped with a gold HC Lamp-Au coded). The absorbance data were plotted against Au concentration, and the resulting calibration curve was used for determining the concentration of the analogs in the aqueous phase.
To construct the standard calibration curve of the Au concentration in the n-octanol phase, compound 27 was used. The Au concentration in compound 27 was first calibrated against the aqueous gold standard. For this, 0.440 mg of compound 27 was weighed on a Sartorius MC5 microbalance, and then added to 22 mL of n-octanol-saturated water. […] For this, solutions of varying concentrations (0.99, 2.47, 4.94, 5.93, 9.88 ppm) of compound 27 in water-saturated n-octanol were prepared. The absorbance was measured by FAAS, and the data were plotted against the Au concentration to provide a second calibration curve, which was used for determining the Au concentration of the analogs in the n-octanol phase.
Determination of Au concentrations: Method 1. 0.5 to 1 mg of compound was weighed into a 2-mL Eppendorf tube containing 2 mL of n-octanol-saturated water. After shaking for about 4 h, the solution was centrifuged at 6000 rpm for 3 min. 1 mL of the supernatant was transferred to a new tube containing 1 mL of water-saturated n-octanol, and the mixture was shaken for 1 h. After centrifugation at 6000 rpm for 5 min, the two layers were collected and the gold concentration in each layer was determined by FAAS by comparing the absorbance to the first and second calibration curves.
Determination of Au concentrations: Method 2. […] For Method 2, 0.6 to 1 mg of compound was weighed into a 2-mL Eppendorf tube containing 1 mL of n-octanol-saturated water and 1 mL of water-saturated n-octanol. After shaking for 3-4 h, the mixture was centrifuged, and all liquid was transferred to a 15-mL tube. The liquid was then diluted with 2 mL of n-octanol-saturated saturated water and 2 mL of water-saturated n-octanol, and the mixture was shaken for another hour. After centrifugation at 6000 rpm for 5 min, the two layers were collected and the gold concentration in each layer was determined by FAAS by comparing the absorbance to the first and second calibration curves.
Log P was calculated as follows: log P=log[compound]oct/[compound]water

A. baumannii NCTC 13420 = test: Antibacterial assay, MIC/MBC by broth microdilution (CLSI); type: cell-based; details: A. baumannii NCTC 13420; repeated twice, a/b = both values
Description: (§1) Antibacterial assay. The minimum inhibitory concentrations (MICs) and the minimum bactericidal concentrations (MBCs) were determined by the broth microdilution method as described in the CLSI (The Clinical & Laboratory Standards Institute) guidelines (Performance standards for antimicrobial susceptibility testing: Clinical and Laboratory Standards Institute (CLSI), Twenty-Fifth informational supplement. Document M100-S25: […]; Vol. 35). All bacterial strains were cultured in cation-adjusted Muller Hinton broth (CAMHB) up to log-phase and then diluted to give a concentration of 7.5×10^5 CFU/mL. The gold complexes were dissolved in DMSO or water as stock solutions, which were then serially diluted two-fold in a 96-well plate. Aliquots (100 μL) of the dilutions were mixed with equal volumes of the bacterium suspension in a 96 well plate (in triplicates). The plates were incubated at 37° C. for 18 h without shaking. Negative and positive controls were included in the same well plate with wells having the culture medium only and bacteria solution only, respectively. The sample concentration that gave inhibition values above 90% were determined as MICs as calculated from absorbance values at 600 nm (OD600) obtained using a Tecan SPARK IOM plate reader. To determine minimum bactericidal concentrations (MBCs), agar plates were treated with 5 μL sample solutions from each well, and then incubated at 37° C. for 18 h without shaking. The sample concentration that gave no colony formed on agar plates were determined as MBCs.
(§2) Selection of bacteria. The ESKAPE pathogens were chosen as they are responsible for the majority of nosocomial infections and also as they provide a good scope of strains including both Gram-negative and Gram-positive species. A. baumannii NCTC 13420 was originally identified in 24 hospitals in the UK during 2000-2003, which produced OXA-51-like β-lactamases, and was highly resistant to ampicillin, piperacillin, piperacillin/tazobactam, ceftazidime, cefotaxime, gentamicin and ciprofloxacin. P. aeruginosa NCTC13437 produces VIM-10 metallo-carbapenemase and VEB-1 (Vietnamese extended-spectrum beta-lactamase). Wild-type strain E. cloacae NCTC 13405 (originally named E. cloacae 684) was isolated from patients at the London Hospital during 1982-1983. This strain has inducible AmpC β-lactamase and is resistant to ampicillin/amoxicillin and cefoxitin. K. pneumoniae ATCC 700603 was isolated from the urine of a hospitalized patient in Richmond, Va. in 1994, and it produces SHV-18 extended spectrum beta-lactamase (ESBL). JE2 (USA300) is a methicillin-resistant S. aureus (MRSA) strain, also resistant to beta-lactams, ciprofloxacin, tetracycline, macrolides (erythromycin), lincosamides (clindamycin), streptogramin B, and mupirocin. E. faecium ATCC 700221, a positive fecal VRE (vancomycin-resistant enterococcus) isolate, is resistant to several antibiotics including vancomycin and teicoplanin. The quality control strain, Gram-negative E. coli ATCC 25922, was included in all assays and validated with ciprofloxacin and […].

E. coli ATCC 25922 = test: as above; type: cell-based; details: repeated twice, a/b = both values
Description: as §1, §2

S. aureus JE2 (USA300) = test: as above; type: cell-based; details: for MIC values in words: S. aureus
Description: as §1, §2

E. cloacae NCTC 13405 = test: as above; type: cell-based; details: for activity in words: E. cloacae
Description: as §1, §2

P. aeruginosa NCTC 13437 = test: as above; type: cell-based; details: P. aeruginosa
Description: as §1, §2

[2] = test system: K. pneumoniae ATCC 700603; test: as above; type: cell-based; details: K. pneumoniae ATCC 700603; repeated twice, a/b = both values
Description: as §1, §2

E. faecalis ATCC 700221 = test: as above; type: cell-based; details: repeated twice, a/b = both values
Description: as §1, §2

`CC[PH](CC)(CC)[Au][S][C@@H]1OC(COC(C)=O)[C@@H](OC(C)=O)[C@H](OC(C)=O)C1NC(C)=O` (stereo partly drawn) [Compound 3, (3,4,6-Tri-O-acetyl-2-N-acetyl-1-thio-β-D-glucopyranosato) (triethylphosphine) gold (1)] showed a logP [1] of 0.26.

For `CC[P+](CC)(CC)[Au-][S]c1ccc(SCC(=O)NC2[C@H](OC(C)=O)OC(COC(C)=O)[C@@H](OC(C)=O)[C@@H]2OC(C)=O)cc1` (stereo partly shown) [Compound 8], the MIC (A. baumannii NCTC 13420) was 76/19 and the logP [1] was -0.36.

In the case of `CC[P+](CC)(CC)[Au-][S][C@@H]1OC(CO)[C@@H](O)[C@H](O)C1NC(C)=O` (stereo partly drawn) [Compound 12, (2-Acetamido-2-deoxy-1-thio-β-D-glucopyranosato)(triethylphosphine) gold(I)], the MIC (E. coli ATCC 25922) was 7/4 and the logP [1] was -0.89.

For `CC[P+](CC)(CC)[Au-][S]c1ccc([N+](=O)[O-])cc1` [Compound 22, (4-Nitrobenzenethiolato)(triethylphosphine) gold(I)], the “MIC values in words” value (S. aureus JE2 (USA300)) was “nanomolar range”, the activity in words (E. cloacae NCTC 13405) was “completely diminished the activity” and the logP [1] was > 3. For the same compound, the “Log P” value [1] was >3.28.

With `CC[P+](CC)(CC)[Au-][S]c1ccc(C(F)(F)F)cc1` [Compound 23, (4-(Trifluromethyl)benzenethiolato)(triethylphosphine) gold(I)] the activity in words (E. cloacae NCTC 13405) was “completely diminished the activity”, the logP [1] was > 3 and the “Log P” value [1] was >3.18.

In the case of `CC[P+](CC)(CC)[Au-][S]CCO` [Compound 24, (2-Mercaptoethanolato)(triethylphosphine) gold(I)], the activity in words (P. aeruginosa NCTC 13437) was “showed activity”, the MIC (E. cloacae NCTC 13405; E. cloacae NCTC 13405, repeated twice, a/b = both values) was 5/10 and the logP [1] was 1.19.

For `CC[P+](CC)(CC)[Au-][S]CC(=O)OC` [Compound 25, (Methyl mercaptoacetatato) (triethylphosphine) gold(I)], the “MIC values in words” value (S. aureus JE2 (USA300)) was “nanomolar range” and the logP [1] was 1.75.

In the case of `CC[P+](CC)(CC)[Au-][S]CC(F)(F)F` [Compound 26, (2,2,2-Trifluoroethanethiolato)(triethylphosphine) gold(I)], the “MIC values in words” value (S. aureus JE2 (USA300)) was “nanomolar range” and the logP [1] was 2.08.

With `C[P+](C)(C)[Au-][Cl]` [Compound 28, (Trimethylphosphine) gold chloride] the MIC (A. baumannii NCTC 13420) was 7/13, the activity in words (P. aeruginosa NCTC 13437) was “showed activity” and the MIC [2] was 7/13. For the same compound, the logP [1] was 0.16.

For `Fc1ccc([P+]([Au-][Cl])(c2ccc(F)cc2)c2ccc(F)cc2)cc1` [Compound 33, (Tris(4-fluorphenyl)phosphine) gold chloride], the MIC (E. faecalis ATCC 700221) was 2/4 and the logP [1] was > 4.04.

With `CC(=O)OCC1O[C@@H]([S][Au-][P+](C)(C)C)C(OC(C)=O)[C@@H](OC(C)=O)[C@@H]1OC(C)=O` (stereo partly drawn) [Compound 35, (2,3,4,6-Tetra-O-acetyl-1-thio-β-D-glucopyranosato)(trimethylphosphine) gold(I)] the MIC (A. baumannii NCTC 13420) was 6/13, the activity in words (P. aeruginosa NCTC 13437) was “four-fold improvement in activity over 15” and the logP [1] was 0.35.

In the case of `CCCC[P+](CCCC)(CCCC)[Au-][S][C@@H]1OC(COC(C)=O)[C@@H](OC(C)=O)[C@H](OC(C)=O)C1OC(C)=O` (stereo partly drawn) [Compound 36, (2,3,4,6-Tetra-O-acetyl-1-thio-β-D-glucopyranosato)(tri-n-butylphosphine) gold(I)], the MIC (E. faecalis ATCC 700221) was 3/5 and the logP [1] was > 4.32.

With `CC(=O)OCC1O[C@@H]([S][Au-][P+](c2ccccc2)(c2ccccc2)c2ccccc2)C(OC(C)=O)[C@@H](OC(C)=O)[C@@H]1OC(C)=O` (stereo partly drawn) [Compound 37, (2,3,4,6-Tetra-O-acetyl-1-thio-β-D-glucopyranosato)(triphenylphosphine) gold(I)] the MIC (S. aureus JE2 (USA300); S. aureus JE2 (USA300), repeated twice, a/b = both values) was 1/2 and the logP [1] was > 3.87.

For `COc1ccc([P+]([Au-][S][C@@H]2OC(COC(C)=O)[C@@H](OC(C)=O)[C@H](OC(C)=O)C2OC(C)=O)(c2ccc(OC)cc2)c2ccc(OC)cc2)cc1` (stereo partly drawn) [Compound 38, (2,3,4,6-Tetra-O-acetyl-1-thio-β-D-glucopyranosato)(tris(4-methoxyphenyl)phosphine) gold(I)], the MIC (E. faecalis ATCC 700221) was 2/4 and the logP [1] was > 3.03.

For `CC(=O)OCC1O[C@@H]([S][Au-][P+](c2ccc(F)cc2)(c2ccc(F)cc2)c2ccc(F)cc2)C(OC(C)=O)[C@@H](OC(C)=O)[C@@H]1OC(C)=O` (stereo partly drawn) [Compound 39, (2,3,4,6-Tetra-O-acetyl-1-thio-β-D-glucopyranosato)(tris(4-fluorophenyl)phosphine)gold(I)], the MIC (E. faecalis ATCC 700221) was 2/5 and the logP [1] was > 3.04.

For `CC(=O)OCC1O[C@@H]([S][Au-][P+](c2ccc(C(F)(F)F)cc2)(c2ccc(C(F)(F)F)cc2)c2ccc(C(F)(F)F)cc2)C(OC(C)=O)[C@@H](OC(C)=O)[C@@H]1OC(C)=O` (stereo partly drawn) [Compound 40, (2,3,4,6-Tetra-O-acetyl-1-thio-β-D-glucopyranosato)(tris(4-(trifluoromethyl)phenylphosphine)) gold(I)], the logP [1] was > 3.55.
